Measurements published in patent US20240002391A1, “4-ALKOXYPYRROLO[2,1-F][1,2,4]TRIAZINES AND PREPARATION AND USES THEREOF” (BioSplice Therapeutics, Inc., priority 2022, published 2024).

Each compound was assayed against recombinant DYRK1A kinase (Homo sapiens (Human), UniProt Q13627) (assay: DYRK1A kinase assay (Ser/Thr 18 peptide Z-lyte FRET)). Settings: DYRK1A kinase activity, Z-lyte Ser/Thr 18 peptide, 15 μM ATP; method text calls the value IC50; read-out: EC50 (the source's name).
Type: biochemical
In short: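 Compounds were tested as 11-point, threefold dilution series starting at 10 μM against recombinant enzyme in a 1 h room-temperature reaction with 15 μM ATP and 4 μM peptide substrate. Phosphorylation is read by protease-coupled FRET, and IC50 values come from curve fitting.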

| IC50 [nM] | SMILES |
| --- | --- |
| 0.9 | COc1nc(N[C@H]2C[C@](C)(C(=O)NC3CC(F)(F)C3)C2)nn2ccc(-c3ccc4ncccc4c3)c12 [Compound 1041, trans-N-(3,3-Difluorocyclobutyl)-3-((4-methoxy-5-(quinolin-6-yl)pyrrolo[2,1-f][1,2,4]triazin-2-yl)amino)-1-methylcyclobutane-1-carboxamide] |
| 1.2 | COc1nc(N[C@H]2C[C@](C)(C(=O)NC3(C)COC3)C2)nn2ccc(-c3ccc4ncccc4c3)c12 [Compound 1042, trans-3-((4-Methoxy-5-(quinolin-6-yl)pyrrolo[2,1-f][1,2,4]triazin-2-yl)amino)-1-methyl-N-(3-methyloxetan-3-yl)cyclobutane-1-carboxamide] |
| 2.8 | COc1nc(N[C@H]2C[C@@](C)(N(C)C)C2)nn2ccc(-c3ccc4ncccc4c3)c12 [Compound 1043, cis-N3-(4-Methoxy-5-(quinolin-6-yl)pyrrolo[2,1-f][1,2,4]triazin-2-yl)-N1,N1,1-trimethylcyclobutane-1,3-diamine] |
| 4.5 | COc1nc(N[C@H]2CCN(CC(C)(C)O)C[C@H]2F)nn2ccc(-c3ccc4ncccc4c3)c12 [Compound 1045, 1-((3R,4S)-3-Fluoro-4-((4-methoxy-5-(quinolin-6-yl)pyrrolo[2,1-f][1,2,4]triazin-2-yl)amino)piperidin-1-yl)-2-methylpropan-2-ol] |
| 2.1 | COc1nc(N[C@H]2CCN(C(C)=O)C[C@H]2F)nn2ccc(-c3ccc4ncccc4c3)c12 [Compound 1047, 1-((3R,4S)-3-Fluoro-4-((4-methoxy-5-(quinolin-6-yl)pyrrolo[2,1-f][1,2,4]triazin-2-yl)amino)piperidin-1-yl)ethan-1-one] |
| 1.3 | COc1nc(N[C@@H]2CCN(C(C)=O)CC2(F)F)nn2ccc(-c3ccc4ncccc4c3)c12 [Compound 1048, (R)-1-(3,3-Difluoro-4-((4-methoxy-5-(quinolin-6-yl)pyrrolo[2,1-f][1,2,4]triazin-2-yl)amino)piperidin-1-yl)ethan-1-one] |
| 4.9 | COc1nc(N[C@@H]2CCC(=O)N(C)C2)nn2ccc(-c3ccc4ncccc4c3)c12 [Compound 1049, (R)-5-((4-Methoxy-5-(quinolin-6-yl)pyrrolo[2,1-f][1,2,4]triazin-2-yl)amino)-1-methylpiperidin-2-one] |
| 13.5 | COc1nc(N[C@@H]2CCCOC2)nn2ccc(-c3ccc4ncccc4c3)c12 [Compound 1050, (R)-4-Methoxy-5-(quinolin-6-yl)-N-(tetrahydro-2H-pyran-3-yl)pyrrolo[2,1-f][1,2,4]triazin-2-amine] |
| 4.5 | COc1nc(N[C@H]2C[C@@](C)(NC(C)=O)C2)nn2cc(F)c(-c3ccc4ncccc4c3)c12 [Compound 1052, N-(cis-3-((6-Fluoro-4-methoxy-5-(quinolin-6-yl)pyrrolo[2,1-f][1,2,4]triazin-2-yl)amino)-1-methylcyclobutyl)acetamide] |
| 2 | COc1nc(N[C@H]2CC[C@@H](NC(C)=O)CC2)nn2cc(F)c(-c3ccc4ncccc4c3)c12 [Compound 1054, N-(cis-4-((6-Fluoro-4-methoxy-5-(quinolin-6-yl)pyrrolo[2,1-f][1,2,4]triazin-2-yl)amino)cyclohexyl)acetamide] |
| 1.1 | COc1nc(N[C@H]2CC[C@](C)(O)CC2)nn2cc(F)c(-c3ccc4ncccc4c3)c12 [Compound 1056, trans-4-((6-Fluoro-4-methoxy-5-(quinolin-6-yl)pyrrolo[2,1-f][1,2,4]triazin-2-yl)amino)-1-methylcyclohexan-1-ol] |
| 1.7 | COc1nc(N[C@H]2CCN(C)C[C@H]2F)nn2cc(F)c(-c3ccc4ncccc4c3)c12 [Compound 1057, 6-Fluoro-N-((3R,4S)-3-fluoro-1-methylpiperidin-4-yl)-4-methoxy-5-(quinolin-6-yl)pyrrolo[2,1-f][1,2,4]triazin-2-amine] |
| 2.3 | COc1nc(N[C@H]2CCN(CC(C)(C)O)C[C@H]2F)nn2cc(F)c(-c3ccc4ncccc4c3)c12 [Compound 1058, 1-((3R,4S)-3-Fluoro-4-((6-fluoro-4-methoxy-5-(quinolin-6-yl)pyrrolo[2,1-f][1,2,4]triazin-2-yl)amino)piperidin-1-yl)-2-methylpropan-2-ol] |
| 1.9 | COc1nc(N[C@H]2CCN(C3COC3)C[C@H]2F)nn2cc(F)c(-c3ccc4ncccc4c3)c12 [Compound 1059, 6-Fluoro-N-((3R,4S)-3-fluoro-1-(oxetan-3-yl)piperidin-4-yl)-4-methoxy-5-(quinolin-6-yl)pyrrolo[2,1-f][1,2,4]triazin-2-amine] |
| 0.9 | COc1nc(N[C@H]2CCN(C(C)=O)C[C@H]2F)nn2cc(F)c(-c3ccc4ncccc4c3)c12 [Compound 1061, 1-((3R,4S)-3-Fluoro-4-((6-fluoro-4-methoxy-5-(quinolin-6-yl)pyrrolo[2,1-f][1,2,4]triazin-2-yl)amino)piperidin-1-yl)ethan-1-one] |
| 3.7 | COc1nc(N[C@@H]2CCN(C3COC3)CC2(F)F)nn2cc(F)c(-c3ccc4ncccc4c3)c12 [Compound 1062, (R)—N-(3,3-Difluoro-1-(oxetan-3-yl)piperidin-4-yl)-6-fluoro-4-methoxy-5-(quinolin-6-yl)pyrrolo[2,1-f][1,2,4]triazin-2-amine] |

| IC50 [nM] | SMILES |
| --- | --- |
| 2 | COc1nc(N[C@@H]2CCN(C(C)=O)CC2(F)F)nn2cc(F)c(-c3ccc4ncccc4c3)c12 [Compound 1064, (R)-1-(3,3-Difluoro-4-((6-fluoro-4-methoxy-5-(quinolin-6-yl)pyrrolo[2,1-f][1,2,4]triazin-2-yl)amino)piperidin-1-yl)ethan-1-one] |
| 4.5 | C[C@]1(O)CC[C@H](Nc2nc(OC3COC3)c3c(-c4ccc5ncccc5c4)ccn3n2)CC1 [Compound 1089, (1r,4r)-1-Methyl-4-((4-(oxetan-3-yloxy)-5-(quinolin-6-yl)pyrrolo[2,1-f][1,2,4]triazin-2-yl)amino)cyclohexan-1-ol] |
| 5.7 | CN1CC[C@H](Nc2nc(OC3COC3)c3c(-c4ccc5ncccc5c4)ccn3n2)[C@H](F)C1 [Compound 1090, N-((3R,4S)-3-Fluoro-1-methylpiperidin-4-yl)-4-(oxetan-3-yloxy)-5-(quinolin-6-yl)pyrrolo[2,1-f][1,2,4]triazin-2-amine] |
| 1.8 | CN1CC[C@@H](Nc2nc(OC3COC3)c3c(-c4ccc5ncccc5c4)ccn3n2)C(F)(F)C1 [Compound 1091, (R)—N-(3,3-Difluoro-1-methylpiperidin-4-yl)-4-(oxetan-3-yloxy)-5-(quinolin-6-yl)pyrrolo[2,1-f][1,2,4]triazin-2-amine] |
| 4.3 | COc1nc(N[C@@H]2COC[C@H]2O)nn2ccc(-c3ccc4nccnc4c3)c12 [Compound 1093, (3S,4R)-4-((4-Methoxy-5-(quinoxalin-6-yl)pyrrolo[2,1-f][1,2,4]triazin-2-yl)amino)tetrahydrofuran-3-ol] |
| 4 | CCN1CC[C@@H](Nc2nc(OC)c3c(-c4ccc5nccnc5c4)ccn3n2)C(F)(F)C1 [Compound 1095, (R)—N-(1-Ethyl-3,3-difluoropiperidin-4-yl)-4-methoxy-5-(quinoxalin-6-yl)pyrrolo[2,1-f][1,2,4]triazin-2-amine] |
| 3 | COc1nc(N[C@@H]2CCN(C(C)=O)CC2(F)F)nn2ccc(-c3ccc4nccnc4c3)c12 [Compound 1096, (R)-1-(3,3-Difluoro-4-((4-methoxy-5-(quinoxalin-6-yl)pyrrolo[2,1-f][1,2,4]triazin-2-yl)amino)piperidin-1-yl)ethan-1-one] |
| 2.7 | COc1nc(N[C@@H]2CCC(=O)N(C)C2)nn2ccc(-c3ccc4nccnc4c3)c12 [Compound 1097, (R)-5-((4-Methoxy-5-(quinoxalin-6-yl)pyrrolo[2,1-f][1,2,4]triazin-2-yl)amino)-1-methylpiperidin-2-one] |
| 6.7 | COc1nc(NC2CC3(CCOCC3)C2)nn2ccc(-c3ccc4nccnc4c3)c12 [Compound 1100, 4-Methoxy-5-(quinoxalin-6-yl)-N-(7-oxaspiro[3.5]nonan-2-yl)pyrrolo[2,1-f][1,2,4]triazin-2-amine] |
| 0.8 | C[C@]1(O)CC[C@H](Nc2nc(OCC(F)F)c3c(-c4ccc5nccnc5c4)ccn3n2)CC1 [Compound 1130, (1r,4r)-4-((4-(2,2-Difluoroethoxy)-5-(quinoxalin-6-yl)pyrrolo[2,1-f][1,2,4]triazin-2-yl)amino)-1-methylcyclohexan-1-ol] |
| 3.8 | CN1CC[C@@H](Nc2nc(OC3COC3)c3c(-c4ccc5nccnc5c4)ccn3n2)C(F)(F)C1 [Compound 1136, (R)—N-(3,3-Difluoro-1-methylpiperidin-4-yl)-4-(oxetan-3-yloxy)-5-(quinoxalin-6-yl)pyrrolo[2,1-f][1,2,4]triazin-2-amine] |
| 4.8 | c1cnc2cc(-c3ccn4nc(NC5CC6(CCOCC6)C5)nc(OC5COC5)c34)ccc2n1 [Compound 1137, 4-(Oxetan-3-yloxy)-5-(quinoxalin-6-yl)-N-(7-oxaspiro[3.5]nonan-2-yl)pyrrolo[2,1-f][1,2,4]triazin-2-amine] |
| 3.3 | c1cnc2cc(-c3ccn4nc(NC5CCC6(CC5)COC6)nc(OC5COC5)c34)ccc2n1 [Compound 1138, 4-(Oxetan-3-yloxy)-5-(quinoxalin-6-yl)-N-(2-oxaspiro[3.5]nonan-7-yl)pyrrolo[2,1-f][1,2,4]triazin-2-amine] |
| 0.5 | COc1nc(N[C@H]2CC[C@](C)(O)CC2)nn2ccc(-c3ccc4ncn(CC(F)F)c4c3)c12 [Compound 1139, (1r,4r)-4-((5-(1-(2,2-Difluoroethyl)-1H-benzo[d]imidazol-6-yl)-4-methoxypyrrolo[2,1-f][1,2,4]triazin-2-yl)amino)-1-methylcyclohexan-1-ol] |
| 1.3 | COc1nc(N[C@@H]2CCN(C(C)=O)CC2(F)F)nn2ccc(-c3ccc4ncn(CC(F)F)c4c3)c12 [Compound 1140, (R)-1-(4-((5-(1-(2,2-Difluoroethyl)-1H-benzo[d]imidazol-6-yl)-4-methoxypyrrolo[2,1-f][1,2,4]triazin-2-yl)amino)-3,3-difluoropiperidin-1-yl)ethan-1-one] |
